# Experimental data: ChEMBL document CHEMBL4219259, “Molecular Determinants Conferring the Stoichiometric-Dependent Activity of α-Conotoxins at the Human α9α10 Nicotinic Acetylcholine Receptor Subtype” (J Med Chem, 2018)
# Peptide text beside a SMILES is read from it.
# Biological target: Neuronal acetylcholine receptor; alpha9/alpha10 (Homo sapiens, UniProt Q9GZZ6+Q9UGM1)
# Assay: Inhibition of human alpha9/alpha10 nACHR (1:1) expressed in Xenopus laevis oocyte assessed as inhibition of ACh induced channel current measured for 2 to 5 days at -80 mV holding potential by two electrode voltage clamp method
# Neuronal acetylcholine receptor; alpha9/alpha10, sequence (Q9UGM1 whole entry): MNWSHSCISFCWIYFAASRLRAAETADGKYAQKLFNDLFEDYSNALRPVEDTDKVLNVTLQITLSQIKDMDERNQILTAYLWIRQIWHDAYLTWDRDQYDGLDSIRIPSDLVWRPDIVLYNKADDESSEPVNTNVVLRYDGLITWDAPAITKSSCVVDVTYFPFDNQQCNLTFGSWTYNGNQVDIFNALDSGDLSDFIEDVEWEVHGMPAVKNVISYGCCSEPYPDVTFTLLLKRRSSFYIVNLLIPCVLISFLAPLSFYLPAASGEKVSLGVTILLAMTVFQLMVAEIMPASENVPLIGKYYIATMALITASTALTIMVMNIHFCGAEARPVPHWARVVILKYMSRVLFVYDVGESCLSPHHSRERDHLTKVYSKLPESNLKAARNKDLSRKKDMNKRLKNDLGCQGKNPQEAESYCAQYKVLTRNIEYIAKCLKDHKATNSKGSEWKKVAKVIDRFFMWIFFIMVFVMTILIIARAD
# Neuronal acetylcholine receptor; alpha9/alpha10, sequence (Q9GZZ6 whole entry): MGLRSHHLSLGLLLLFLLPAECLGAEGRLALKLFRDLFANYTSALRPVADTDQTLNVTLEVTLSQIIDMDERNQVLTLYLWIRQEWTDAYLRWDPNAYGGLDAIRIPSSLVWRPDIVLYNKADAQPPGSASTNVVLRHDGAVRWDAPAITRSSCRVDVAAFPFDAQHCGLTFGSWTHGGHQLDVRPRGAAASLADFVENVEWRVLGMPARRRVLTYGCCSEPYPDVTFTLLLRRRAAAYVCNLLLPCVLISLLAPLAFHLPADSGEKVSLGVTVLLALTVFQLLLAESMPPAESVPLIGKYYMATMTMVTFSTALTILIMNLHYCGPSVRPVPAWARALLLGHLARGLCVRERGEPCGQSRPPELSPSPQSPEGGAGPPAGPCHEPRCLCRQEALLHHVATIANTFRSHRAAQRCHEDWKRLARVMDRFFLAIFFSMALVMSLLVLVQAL
smiles,measurement,value
"CC(C)[C@@H]1NC(=O)[C@H](CO)NC(=O)[C@@H]2CSSC[C@H](NC(=O)CN)C(=O)N[C@@H](CSSC[C@@H](C(N)=O)NC(=O)[C@H](CCCCN)NC(=O)[C@H](CC(N)=O)NC(=O)[C@@H]3CCCN3C(=O)[C@H](Cc3ncc[nH]3)NC(=O)[C@H](CC(=O)O)NC1=O)C(=O)N[C@@H](CO)C(=O)N[C@@H](Cc1ncc[nH]1)C(=O)N1CCC[C@H]1C(=O)N[C@@H](C)C(=O)N2 (HELM PEPTIDE1{G.C.C.S.[O=C([C@H](Cc1ncc[nH]1)N[*:1])[*:2]].P.A.C.S.V.D.[O=C([C@H](Cc1ncc[nH]1)N[*:1])[*:2]].P.N.K.C.[am]}$PEPTIDE1,PEPTIDE1,2:R3-8:R3|PEPTIDE1,PEPTIDE1,3:R3-16:R3$$$V2.0)",IC50,22.2 µM
